Results on two compounds are retold here after US20110245292A1, “2-HYDROXY-ETHANESULFONATE SALT” (AstraZeneca AB, priority 2008, published 2011).

The data set is described as follows: Gravimetric Vapour Sorption (GVS). It is filed as physicochemical. On the procedure:
Gravimetric Vapour Sorption (GVS) profiles were measured using a Surface Measurements Systems Dynamic Vapour Sorption DVS-1 or a DVS Advantage instrument. The solid sample ca. 1-5 mg was placed into a glass vessel and the weight of the sample was recorded during a dual cycle step method (40 to 90 to 0 to 90 to 0% relative humidity (RH), in steps of 10% RH).

Counter-ions that a name gives are not always drawn.

On to `O[C@](c1ccccc1)(c1cc(C[N+]23CCC(CC2)[C@@H](Oc2cccc(F)c2)C3)on1)C1CCCCC1` [Salt Form A, (R)-1-[3-((R)-cyclohexyl-hydroxy-phenyl-methyl)-isoxazol-5-ylmethyl]-3-(3-fluoro-phenoxy)-1-azonia-bicyclo[2.2.2]octane 2-hydroxy-ethanesulfonate], for which the “GVS weight increase at 80% RH” value (80% RH (±0.3%), material of preparation 2) is reported as 0.15%. Also, where the note is “80% RH, material of preparation 1”, the “GVS mass increase at 80% RH” value was “no mass increase”.
Regarding `O[C@](c1ccccc1)(c1cc(C[N+]23CCC(CC2)[C@@H](Oc2cccc(F)c2)C3)on1)C1CCCCC1.[Cl-]` [(R)-1-[3-((R)-Cyclohexyl-hydroxy-phenyl-methyl)-isoxazol-5-ylmethyl]-3-(3-fluoro-phenoxy)-1-azonia-bicyclo[2.2.2]octane chloride], the “GVS mass increase, 1st cycle” value (1st cycle, sample of preparation 1 (step a)) is “approximately 5%”. In addition, for the setting “2nd cycle, sample of preparation 1 (step a)”, the “GVS mass increase, 2nd cycle” value is reported as around 6.5%.
